Our source for the EC50 values is patent US10556907B2 (AbbVie Inc., priority 2015, dated 2020).

Structures can show the parent of a compound that is named as a salt.

Common to all, as to test: Method 1: intracellular Ca2+ release (FLIPR, Calcium 5) in recombinant CHO-K1 cells
Assay type in all cases: cell-based

One assay concerns the target T1, human S1PR1 receptor (Homo sapiens, UniProt P21453).
T1 construct: host or cells: CHO-K1
Conditions: (1): determined with method 1; read-out: S1P1 EC50. In a few lines:
(§1)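 CHO-K1 cells co-expressing the receptor, aequorin and Gq/i5 were loaded with Calcium 5 dye 1 h at 37° C, then held 45 min at RT. Serially diluted compounds added in HBSS/20 mmol/L Hepes/2.5 mmol/L probenecid/0.1% BSA pH 7.4. FLIPR Tetra fluorescence, normalized to phospho-fingolimod, fitted for EC50.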

A further assay has as its target T2, human S1PR3 receptor (Homo sapiens, UniProt Q99500).
T2 construct: host or cells: CHO-K1
Conditions: (1): determined with method 1; read-out: S1P3 EC50. Summed up: as §1

Another assay concerns the target T3, human S1PR4 receptor (Homo sapiens, UniProt O95977).
T3 construct: host or cells: CHO-K1
T3 sequence (O95977 1-384): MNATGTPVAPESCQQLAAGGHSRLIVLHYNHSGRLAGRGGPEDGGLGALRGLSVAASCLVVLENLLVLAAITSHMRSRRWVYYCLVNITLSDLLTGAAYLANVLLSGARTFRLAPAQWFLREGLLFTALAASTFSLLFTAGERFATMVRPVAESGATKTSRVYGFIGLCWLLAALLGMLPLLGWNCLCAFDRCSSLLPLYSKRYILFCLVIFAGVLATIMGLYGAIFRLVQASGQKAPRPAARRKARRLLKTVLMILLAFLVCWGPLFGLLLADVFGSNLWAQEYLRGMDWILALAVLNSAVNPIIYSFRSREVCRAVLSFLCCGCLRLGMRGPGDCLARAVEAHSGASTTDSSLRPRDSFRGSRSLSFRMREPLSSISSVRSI
Conditions: (1): determined with method 1; read-out: S1P4 EC50. In a few lines: as §1

The target in the next assay is T4, human S1PR5 receptor (Homo sapiens, UniProt Q9H228).
T4 construct: host or cells: CHO-K1
T4 sequence (Q9H228 whole entry): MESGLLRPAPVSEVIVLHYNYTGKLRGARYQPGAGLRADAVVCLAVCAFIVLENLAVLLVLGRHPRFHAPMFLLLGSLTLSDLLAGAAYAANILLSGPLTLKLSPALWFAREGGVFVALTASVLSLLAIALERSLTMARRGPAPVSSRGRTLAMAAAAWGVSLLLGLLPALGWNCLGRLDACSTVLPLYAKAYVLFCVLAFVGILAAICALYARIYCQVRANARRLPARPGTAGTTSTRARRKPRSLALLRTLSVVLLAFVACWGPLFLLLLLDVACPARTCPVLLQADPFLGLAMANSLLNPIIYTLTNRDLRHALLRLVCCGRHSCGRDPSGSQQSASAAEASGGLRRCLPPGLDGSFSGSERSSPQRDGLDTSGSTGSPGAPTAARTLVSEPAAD
Conditions: agonist potency, determined with method 1 (symbols A-D); read-out: S1P5 EC50 range. Summed up: as §1

T2 sequence (Q99500 whole entry): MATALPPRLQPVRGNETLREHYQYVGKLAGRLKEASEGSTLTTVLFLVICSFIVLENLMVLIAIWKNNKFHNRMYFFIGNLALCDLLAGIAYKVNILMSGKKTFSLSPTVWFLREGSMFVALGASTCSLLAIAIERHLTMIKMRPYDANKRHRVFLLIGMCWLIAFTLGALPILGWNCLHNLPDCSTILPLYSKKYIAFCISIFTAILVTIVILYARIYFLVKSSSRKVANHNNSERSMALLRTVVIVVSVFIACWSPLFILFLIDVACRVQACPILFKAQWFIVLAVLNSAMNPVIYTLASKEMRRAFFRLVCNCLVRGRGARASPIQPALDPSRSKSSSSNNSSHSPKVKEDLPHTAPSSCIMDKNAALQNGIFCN
T1 sequence (P21453 whole entry): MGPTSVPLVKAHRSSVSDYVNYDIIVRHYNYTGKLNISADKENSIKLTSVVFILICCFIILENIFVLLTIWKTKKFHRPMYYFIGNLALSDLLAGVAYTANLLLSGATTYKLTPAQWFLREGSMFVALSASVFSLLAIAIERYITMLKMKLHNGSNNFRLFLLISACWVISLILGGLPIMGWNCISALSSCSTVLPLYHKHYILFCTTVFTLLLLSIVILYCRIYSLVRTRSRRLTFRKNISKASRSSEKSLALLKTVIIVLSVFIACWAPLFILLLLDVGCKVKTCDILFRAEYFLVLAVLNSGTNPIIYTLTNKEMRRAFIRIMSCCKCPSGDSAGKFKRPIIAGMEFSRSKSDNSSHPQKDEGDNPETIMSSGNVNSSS

Turning to `Cc1cc(OC(F)(F)F)ccc1COc1ccc(-c2ccc3c(n2)CCN(CCC(=O)O)C3)cc1` [Compound 161, 3-(2-(4-((2-methyl-4-(trifluoromethoxy)benzyl)oxy)phenyl)-7,8-dihydro-1,6-naphthyridin-6(5H)-yl)propanoic acid], the EC50 on human S1PR1 receptor is over 1000 nM; at human S1PR3 receptor it was over 1000 nM; on human S1PR4 receptor it was over 1000 nM; at human S1PR5 receptor, under 10 nM.
Take `CC(CC(=O)O)CN1CCc2nc(-c3ccc(OCc4ccc(C(C)(C)C)cc4)cc3F)ncc2C1` (centres unmarked) [Compound 283, 4-[2-[4-[(4-tert-butylphenyl)methoxy]-2-fluoro-phenyl]-7,8-dihydro-5H-pyrido[4,3-d]pyrimidin-6-yl]-3-methyl-butanoic acid 2,2,2-trifluoroacetic acid salt]: the EC50 at human S1PR1 receptor was over 1000 nM; on human S1PR3 receptor, over 1000 nM; on human S1PR4 receptor, over 1000 nM; at human S1PR5 receptor, 10 to 100 nM.
Turning to `Cc1c(COc2ccc(-c3ncc4c(n3)CCN(CC(C)CC(=O)O)C4)cc2)cccc1C(F)(F)F` (centres unmarked) [Compound 246, 3-methyl-4-[2-[4-[[2-methyl-3-(trifluoromethyl)phenyl]methoxy]phenyl]-7,8-dihydro-5H-pyrido[4,3-d]pyrimidin-6-yl]butanoic acid 2,2,2-trifluoroacetic acid salt], the EC50 at human S1PR1 receptor is over 1000 nM; on human S1PR3 receptor, over 1000 nM; on human S1PR4 receptor, over 1000 nM; at human S1PR5 receptor, under 10 nM.
Turning to `O=C(O)CCCN1CCc2nc(Cc3ccccc3)ncc2C1` [Compound 50, 4-(2-benzyl-7,8-dihydropyrido[4,3-d]pyrimidin-6(5H)-yl)butanoic acid], the EC50 is over 1000 nM on human S1PR1 receptor, over 1000 nM on human S1PR3 receptor, over 1000 nM on human S1PR4 receptor and 1000 to 10000 nM on human S1PR5 receptor.
`O=C(O)CCN1CCc2cc(-c3ccc(OCc4ccc(Cl)cc4)cc3)ncc2C1` [Compound 174, 3-(6-((4(4-chlorobenzyl)oxy)phenyl)-3,4-dihydro-2,7-naphthyridin-2(1H)-yl)propanoic acid]: the EC50 is over 1000 nM on human S1PR1 receptor, over 1000 nM at human S1PR3 receptor, over 1000 nM at human S1PR4 receptor and under 10 nM on human S1PR5 receptor.
For `O=C(O)CCN1CCc2cc(-c3ccc(OCc4cccc(Cl)c4)cc3)ncc2C1` [Compound 175, 3-(6-(4-((3-chlorobenzyl)oxy)phenyl)-3,4-dihydro-2,7-naphthyridin-2(1H)-yl)propanoic acid], the EC50 on human S1PR1 receptor was over 1000 nM; at human S1PR3 receptor it was over 1000 nM; on human S1PR4 receptor, over 1000 nM; at human S1PR5 receptor it was under 10 nM.
Regarding `CC(CCN1CCc2nc(-c3ccc(OCc4cccc(Cl)c4)cc3)c(F)cc2C1)C(=O)O` (centres unmarked) [Compound 182, 4-(2-(4-((3-chlorobenzyl)oxy)phenyl)-3-fluoro-7,8-dihydro-1,6-naphthyridin-6(5H)-yl)-2-methylbutanoic acid], the EC50 on human S1PR1 receptor was over 1000 nM; at human S1PR3 receptor it was over 1000 nM; on human S1PR4 receptor, over 1000 nM; on human S1PR5 receptor, under 10 nM.
As for `Cc1c(COc2ccc(-c3ncc4c(n3)CCN(CC(C)CC(=O)O)C4)c(F)c2)cccc1C(F)(F)F` (centres unmarked) [Compound 241, 4-[2-[2-fluoro-4-[[2-methyl-3-(trifluoromethyl)phenyl]methoxy]phenyl]-7,8-dihydro-5H-pyrido[4,3-d]pyrimidin-6-yl]-3-methyl-butanoic acid 2,2,2-trifluoroacetic acid salt], the 50% effective concentration (EC50) is over 1000 nM at human S1PR1 receptor, over 1000 nM at human S1PR3 receptor, over 1000 nM at human S1PR4 receptor and under 10 nM at human S1PR5 receptor.
On to `O=C(O)CCN1CCc2cc(-c3ccc(OCc4cccc(F)c4)cc3)ncc2C1` [Compound 176, 3-(6-(4-((3-fluorobenzyl)oxy)phenyl)-3,4-dihydro-2,7-naphthyridin-2(1H)-yl)propanoic acid], for which the EC50 is over 1000 nM on human S1PR1 receptor, over 1000 nM at human S1PR3 receptor, over 1000 nM at human S1PR4 receptor and under 10 nM at human S1PR5 receptor.
As to `CC(CC(=O)O)CN1CCc2nc(-c3ccc(C(F)(F)Cc4ccc(Cl)cc4)cc3)ncc2C1` (centres unmarked) [Compound 265, 4-(2-(4-(2-(4-chlorophenyl)-1,1-difluoroethyl)phenyl)-7,8-dihydropyrido[4,3-d]pyrimidin-6(5H)-yl)-3-methylbutanoic acid], the concentration for a half-maximal effect (EC50) on human S1PR1 receptor was over 1000 nM; on human S1PR3 receptor, over 1000 nM; on human S1PR4 receptor, over 1000 nM; on human S1PR5 receptor, 10 to 100 nM.
`Cc1cc(-c2cc3c(cn2)CN(CCC(=O)O)CC3)ccc1OCc1ccc(Cl)cc1` [Compound 172, 3-(6-(4-((4-chlorobenzyl)oxy)-3-methylphenyl)-3,4-dihydro-2,7-naphthyridin-2(1H)-yl)propanoic acid]: the EC50 at human S1PR1 receptor is over 1000 nM; on human S1PR3 receptor, over 1000 nM; on human S1PR4 receptor, over 1000 nM; at human S1PR5 receptor, under 10 nM.
`CC(CCC(=O)O)N1CCc2nc(-c3ccc(OCc4ccc(Cl)cc4)cc3)ncc2C1` (centres unmarked) [Compound 66, 4-(2-(4-((4-chlorobenzyl)oxy)phenyl)-7,8-dihydropyrido[4,3-d]pyrimidin-6(5H)-yl)pentanoic acid]: the EC50 on human S1PR1 receptor is over 1000 nM; on human S1PR3 receptor it was over 1000 nM; at human S1PR4 receptor it was over 1000 nM; on human S1PR5 receptor, under 10 nM.
Regarding `O=C(O)C1CC(N2CCc3nc(C#Cc4ccc(OCc5ccccc5)cc4)ccc3C2)C1` (centres unmarked) [Compound 125, 3-(2-((4-(benzyloxy)phenyl)ethynyl)-7,8-dihydro-1,6-naphthyridin-6(5H)-yl)cyclobutanecarboxylic acid], the concentration giving a half-maximal response (EC50) on human S1PR1 receptor was over 1000 nM; at human S1PR3 receptor, over 1000 nM; on human S1PR4 receptor, over 1000 nM; at human S1PR5 receptor, 100 to 1000 nM.
Consider `CC(CC(=O)O)CN1CCc2nc(-c3ccc(OCc4ccc(F)cc4)cc3)ncc2C1` (centres unmarked) [Compound 225, 4-(2-(4-((4-fluorobenzyl)oxy)phenyl)-7,8-dihydropyrido[4,3-d]pyrimidin-6(5H)-yl)-3-methylbutanoic acid], for which the EC50 was over 1000 nM at human S1PR1 receptor, over 1000 nM on human S1PR3 receptor, over 1000 nM at human S1PR4 receptor and under 10 nM at human S1PR5 receptor.
In the case of `CC(CC(=O)O)CN1CCc2nc(-c3ccc(OCc4cccc(F)c4)cc3F)ncc2C1` (centres unmarked) [Compound 289, 4-[2-[2-fluoro-4-[(3-fluorophenyl)methoxy]phenyl]-7,8-dihydro-5H-pyrido[4,3-d]pyrimidin-6-yl]-3-methyl-butanoic acid 2,2,2-trifluoroacetic acid salt], the results for the EC50 at human S1PR1 receptor, on human S1PR4 receptor and on human S1PR5 receptor were over 1000 nM, over 1000 nM and 100 to 1000 nM, respectively.
Consider `Cc1cccc(COc2ccc(-c3ncc4c(n3)CCN(CC(C)CC(=O)O)C4)cc2C)c1` (centres unmarked) [Compound 320, 3-methyl-4-[2-[3-methyl-4-(m-tolylmethoxy)phenyl]-7,8-dihydro-5H-pyrido[4,3-d]pyrimidin-6-yl]butanoic acid 2,2,2-trifluoroacetic acid salt], for which the EC50 on human S1PR1 receptor was over 1000 nM; at human S1PR4 receptor it was over 1000 nM; at human S1PR5 receptor it was 1000 to 10000 nM.
For `O=C(O)CN1CCc2nc(-c3ccc(OCc4ccc(Cl)cc4)cc3)ncc2C1` [Compound 29, 2-(2-(4-((4-chlorobenzyl)oxy)phenyl)-7,8-dihydropyrido[4,3-d]pyrimidin-6(5H)-yl)acetic acid], the half-maximal effective concentration (EC50) was over 1000 nM on human S1PR1 receptor, over 1000 nM at human S1PR4 receptor and 100 to 1000 nM on human S1PR5 receptor.
As to `O=C(O)C1CCC(N2CCc3nc(-c4ccc(OCc5ccc(Cl)cc5)cc4)ncc3C2)C1` (centres unmarked) [Compound 295, 3-(2-(4-((4-chlorobenzyl)oxy)phenyl)-7,8-dihydropyrido[4,3-d]pyrimidin-6(5H)-yl)cyclopentanecarboxylic acid], the EC50 on human S1PR1 receptor was over 1000 nM; on human S1PR4 receptor, over 1000 nM; on human S1PR5 receptor, 100 to 1000 nM.
Turning to `Cc1ccccc1COc1ccc(-c2ncc3c(n2)CCN(C[C@H](C)CC(=O)O)C3)cc1C` [Compound 303], the EC50 on human S1PR1 receptor was over 1000 nM; on human S1PR4 receptor it was under 1000 nM; at human S1PR5 receptor, 100 to 1000 nM.
The matching figures for `C[C@H](CC(=O)O)CN1CCc2nc(-c3ccc(C(F)(F)Cc4ccc(Cl)cc4)cc3)ncc2C1` (single isomer, unassigned) [Compound 294, 4-(2-(4-(2-(4-chlorophenyl)-1,1-difluoroethyl)phenyl)-7,8-dihydropyrido[4,3-d]pyrimidin-6(5H)-yl)-3-methylbutanoic acid]: over 1000 nM, over 1000 nM and 100 to 1000 nM.
The matching figures for `CC(C)(CC(=O)O)CN1CCc2nc(-c3ccc(OCc4cccc(Cl)c4)cc3)cnc2C1` [Compound 211, 4-(2-(4-((3-chlorobenzyl)oxy)phenyl)-7,8-dihydropyrido[3,4-b]pyrazin-6(5H)-yl)-3,3-dimethylbutanoic acid]: over 1000 nM, over 1000 nM and 1000 to 10000 nM.
Turning to `CC(C(=O)O)N1CCc2nc(-c3ccc(OCc4cc(F)cc(F)c4)cc3)ncc2C1` (centres unmarked) [Compound 299, 2-(2-(4-((3,5-difluorobenzyl)oxy)phenyl)-7,8-dihydropyrido[4,3-d]pyrimidin-6(5H)-yl)propanoic acid], the 50% effective concentration (EC50) was over 1000 nM at human S1PR1 receptor, over 1000 nM on human S1PR4 receptor and 100 to 1000 nM at human S1PR5 receptor.

In general, EC50 refers to the concentration needed to bring the measured effect to its halfway point.
